Experimental data from patent publication US10766914B2, “DNA alkylating agents” (OBI PHARMA, INC., priority 2015, dated 2020).

What was measured:
Hep G2 = test: TH2870 sensitivity in liver cancer cells; assay type: cell-based, human
SNU-387 = test: TH2870 sensitivity in liver cancer cells; assay type: cell-based, human; details: AKR1C3 expression ++++
LIC-0903 = test: TH2870 sensitivity in liver cancer cells; assay type: cell-based, human; details: AKR1C3 expression ++++
HCCC-9810 = test: TH2870 sensitivity in liver cancer cells; assay type: cell-based, human; details: AKR1C3 expression ++++
JHH-7 = test: TH2870 sensitivity in liver cancer cells; assay type: cell-based, human
LIXC-004 = test: TH2870 sensitivity in liver cancer cells; assay type: cell-based, human; details: AKR1C3 expression +++
LIXC-006 = test: TH2870 sensitivity in liver cancer cells; assay type: cell-based, human; details: AKR1C3 expression +++
SNU-423 = test: TH2870 sensitivity in liver cancer cells; assay type: cell-based, human; details: AKR1C3 expression +
[1] = tested on: A375 melanoma human tumor xenograft; test: Example 4-C antitumor efficacy, ectopic A375 melanoma xenograft model; assay type: in vivo, female nude mice (nu/nu); details: qd × 5 × 2, ip
[2] = Example 4-D body weight change and lethal toxicity, A549 xenograft study; assay type: in vivo, female nude mice (nu/nu); details: for Lethal Tox: 10 animals per group
Summary of the method: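 Subcutaneous flank A549 xenografts in Matrigel; treatment from ~100 mm^3 tumors, 10 mice/group, compounds in 5% DMSO in D5W. Dosed IP daily, 5 days on, 2 off, then 5 more doses; body weight and tumor volume measured twice weekly, lethality recorded.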

H460 NSCLC xenograft = test: Example 4-I antitumor efficacy, ectopic H460 NSCLC xenograft model; assay type: in vivo, female nude mice (nu/nu); details: iv, Q7D × 3; for TGD500, Days (vs. vehicle) / TGD1000, Days (vs. vehicle): H460; for TGI: H460, 250 mm3 tumors on day 1
Source text: Specific pathogen-free homozygous female nude mice (nu/nu, Charles River Laboratories) were used. Mice were given food and water ad libitum and housed in microisolator cages. Four to six week old animals were identified by microchips (Locus Technology, Manchester, Md., USA) at the time of the experiments. All animal studies were approved by the Institutional Animal Care and Use Committee at Threshold Pharmaceuticals, Inc.
All cell lines were from the American Type Culture Collection (ATCC, Rockville, Md., USA).
Cells were mixed with Matrigel (50% with exception for 30% in the H460) and 0.2 ml per mouse were subcutaneously implanted to the flank area of the animals. When tumor size reached 100-150 250 mm3, mice were randomized into experimental or vehicle groups with 10 mice/group and treatment was started (Day 1). The tested compounds were formulated in 5% DMSO in D5W. The regimens employed in the examples include IP, QD×5/wk (5 days on, 2 days off) as one cycle, for a total of 2 cycles; IP, once; IP, weekly for total 3 weeks; and IV, weekly for 3 weeks. Tumor growth and body weight were measured twice a week. Tumor volume was calculated as (length×width2)/2. Drug efficacy was assessed as Tumor Growth Inhibition (TGI) and Tumor Growth Delay (TGD). TGI was defined as (1−ΔT/ΔC)×100, where ΔT/ΔC presented the ratio of the change in mean (or median, if variation within the group was relatively large) tumor volume of the treated group and of the control group. TGD was calculated as the extra days for the treated tumor to reach 500 mm3 or 1000 mm3 as compared to the control group. Animals were culled when individual tumor size reached over 2000 mm3 or mean tumor volume exceeded 1000 mm3 in the group. Data are expressed as the mean±SEM. One-way analysis of variance with Dunnett post comparison test (GraphPad Prism 4) or two-tailed student's t-test were used for analysis. A P level <0.05 was considered statistically significant.
The compound TH-2870 was tested in a H460 model. The compound was dosed follows. 1.5, 5 or 15 mg/kg, IV, weekly for 3 weeks at 250 mm^3 tumors on day 1 (10 animals per group average tumor volume), comparing with docetaxel. The antitumor effects and the safety of administration are graphically illustrated below.

AKR1C3 = biological target: T1, AKR1C3 (Homo sapiens, UniProt P42330); test: Activation by the aldoketo reductase AKR1C3 (% remaining, LC/MS/MS); assay type: biochemical; details: for % Remaining: 5 μM, 25 μg/mL AKR1C3, 2 mM NADPH, 37° C.
T1 sequence (P42330 1-323): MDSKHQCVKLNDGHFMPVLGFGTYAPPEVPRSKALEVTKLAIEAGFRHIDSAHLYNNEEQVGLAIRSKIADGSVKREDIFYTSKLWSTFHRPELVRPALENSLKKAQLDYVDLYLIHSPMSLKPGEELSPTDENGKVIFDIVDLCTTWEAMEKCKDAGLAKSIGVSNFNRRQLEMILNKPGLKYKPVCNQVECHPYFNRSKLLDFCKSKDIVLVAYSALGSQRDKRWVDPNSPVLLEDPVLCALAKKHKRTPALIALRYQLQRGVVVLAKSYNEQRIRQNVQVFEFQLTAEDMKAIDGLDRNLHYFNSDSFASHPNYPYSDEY
Protocol: Recombinant human AKR1C3 was diluted to 25 μg/mL in phosphate buffered saline (PBS), pH 7.4 (37° C.), containing 2 mM NADPH. TH2870 or progesterone (positive control) in 30% methanol/70% water was added to the reaction mixture at a final concentration of 5 μM and incubated at 37° C. for 120 minutes. At various times up to 120 min, 50 μL of the reaction mixture was taken and 200 μL acetonitrile containing propranolol as internal standard was added, vortex-mixed and centrifuged for 10 min. The resulting supernatant (5 μL) was injected into a LC/MS/MS for quantitation of % remaining TH2870 and progesterone. The compounds were tested in duplicate.

[3] = Homo sapiens, read-out: RelIC50

## CC(OP(=O)(N1CC1)N1CC1)c1ccc([N+](=O)[O-])c(Oc2cccc(C(=O)N(C)C)c2)c1 (stereo not shown) [Compound 2870]
Hep G2; AKR1C3 expression ++++
  Max Inhibition %: 98.9%
Hep G2; Homo sapiens, HepG2, AKR1C3 expression ++++, read-out: RelIC50
  IC50: 5.5 nM
SNU-387
  Max Inhibition %: 102.8%
LIC-0903
  Max Inhibition %: 96.3%
LIC-0903; [3]
  IC50: 81.9 nM
HCCC-9810
  Max Inhibition %: 95.4%
JHH-7; AKR1C3 expression +++
  Max Inhibition %: 69.8%
JHH-7; Homo sapiens, JHH7, AKR1C3 expression +++, read-out: RelIC50
  IC50: 107 nM
LIXC-004
  Max Inhibition %: 83.6%
LIXC-004; [3]
  IC50: 31.3 nM
LIXC-006
  Max Inhibition %: 71.7%
LIXC-006; [3]
  IC50: 116 nM
SNU-423
  Max Inhibition %: 43.3%
SNU-423; [3]
  IC50: > 1000 nM
[1]; 20 mpk
  TGD 500: 24 days
  TGD 1000: >18 days
[1]; Mus musculus, A-375, 20 mpk, read-out: TGI
  inhibition in vivo at 20 mg/kg: 98%
[2]; 20 mg/kg IP QD × 5/wk × 2 wks
  Max. BW loss %: 0.3%
  Lethal Tox: 0
[2]; 40 mg/kg IV 2/wk × 2 wks
  Max. BW loss %: 2.0%
  Lethal Tox: 1
H460 NSCLC xenograft; 1.5 mg/kg
  TGD500, Days (vs. vehicle): 18 days
  TGD1000, Days (vs. vehicle): 18 days
  TGI: 100.0%
H460 NSCLC xenograft; 5 mg/kg
  TGD500, Days (vs. vehicle): 36 days
  TGD1000, Days (vs. vehicle): 38 days
  TGI: 121.3%
H460 NSCLC xenograft; 15 mg/kg
  TGD500, Days (vs. vehicle): 49 days
  TGD1000, Days (vs. vehicle): 50 days
  TGI: 121.6%
AKR1C3; 0 min
  % Remaining: 100%
AKR1C3; 15 min
  % Remaining: 0.232%
AKR1C3; 30 min
  % Remaining: 0.0101%
AKR1C3; 60 min
  % Remaining: 0.00%
AKR1C3; 90 min
  % Remaining: 0.00%
AKR1C3; 120 min
  % Remaining: 0.00%
AKR1C3; in words
  disappearance in the presence of AKR1C3: rapid disappearance
